Measured values: US20220396565A1 (Hoffmann-La Roche Inc., priority 2020, published 2022)
Structures can show the parent of a compound that is named as a salt.

System: Acinetobacter baumannii ATCC17961
Experiment: Antimicrobial susceptibility testing: 90% growth inhibitory concentration (IC90) determination, Iso-Sensitest broth
Type: cell-based
Conditions: 90% growth inhibitory concentration, Acinetobacter baumannii ATCC17961, Iso-Sensitest broth; read-out: ATCC 17961 IC90
Method in brief: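 Twofold serial dilutions (e.g. 10 to 0.02 μM final) were tested in Iso-Sensitest broth against ~5×10^(5) CFU/ml at 35±2 °C. OD600 was read every 20 min over 16 h. IC90 was derived from growth inhibition during the logarithmic phase.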

Compound | IC90 [nM]
N-(azetidin-3- ylmethyl)-1-[2-chloro- 4-[[5-[4- (cyanomethoxy)-2,3- difluoro-phenyl]-1- methyl-imidazole-2- carbonyl]amino]benzoyl] piperidine-4- carboxamide trifluoroacetate [Example 264] | 90

Same assay, conditions: Acinetobacter baumannii, ATCC17961, 90% growth inhibitory concentration, Acinetobacter baumannii ATCC17961, Iso-Sensitest broth; read-out: ATCC 17961 IC90

IC90 [nM] | Compound
170 | COc1ccc(-c2cnc(C(=O)Nc3ccc(C(=O)N4CCN(C(=O)C5CNC(=O)N5)CC4)c(Cl)c3)n2C)c(F)c1F (stereo not drawn) [Example 133, N-[3-chloro-4-[4-(2-oxoimidazolidine-4-carbonyl)piperazine-1-carbonyl]phenyl]-5-(2,3-difluoro-4-methoxy-phenyl)-1-methyl-imidazole-2-carboxamide]
30 | Cn1c(-c2ccc(OCF)c(Cl)c2F)cnc1C(=O)Nc1ccc(C(=O)N2CCN(C(=O)[C@@H]3C[C@@H](O)CN3)CC2)c(Cl)c1 [Example 247, 5-[3-chloro-2-fluoro-4-(fluoromethoxy)phenyl]-N-[3-chloro-4-[4-[(2S,4R)-4-hydroxypyrrolidine-2-carbonyl]piperazine-1-carbonyl]phenyl]-1-methyl-imidazole-2-carboxamide]
150 | COc1c(F)cc(-c2cnc(C(=O)Nc3ccc(C(=O)N4CCN(C(=O)C5CCNCC5)CC4)c(Cl)c3)n2C)c(F)c1F [Example 168, N-[3-chloro-4-[4-(piperidine-4-carbonyl)piperazine-1-carbonyl]phenyl]-1-methyl-5-(2,3,5-trifluoro-4-methoxy-phenyl)imidazole-2-carboxamide formate]
40 | Cn1c(-c2ccc(OCF)c(F)c2Cl)cnc1C(=O)Nc1ccc(C(=O)N2CCN(C(=O)C[C@@H]3CCNC3)CC2)c(Cl)c1 [Example 146, 5-[2-chloro-3-fluoro-4-(fluoromethoxy)phenyl]-N-[3-chloro-4-[4-[2-[(3S)-pyrrolidin-3-yl]acetyl]piperazine-1-carbonyl]phenyl]-1-methyl-imidazole-2-carboxamide formate]
50 | Cn1c(-c2ccc(OCF)c(F)c2Cl)cnc1C(=O)Nc1ccc(C(=O)N2CCC(C(=O)N[C@H]3CCNC3)CC2)c(Cl)c1 [Example 65, 1-[2-chloro-4-[[5-[2-chloro-3-fluoro-4-(fluoromethoxy)phenyl]-1-methyl-imidazole-2-carbonyl]amino]benzoyl]-N-[(3S)-pyrrolidin-3-yl]piperidine-4-carboxamide formate]
80 | CN(C)CC(=O)N1CCN(C(=O)c2ccc(NC(=O)c3ncc(-c4ccc(OC(F)F)c(F)c4)n3C)cc2Cl)CC1 [Example 176, N-[3-chloro-4-[4-[2-(dimethylamino)acetyl]piperazine-1-carbonyl]phenyl]-5-[4-(difluoromethoxy)-3-fluoro-phenyl]-1-methyl-imidazole-2-carboxamide formate]
60 | Cn1c(-c2ccc(OCC#N)c(F)c2Cl)cnc1C(=O)Nc1ccc(C(=O)N2CCN(C(=O)C3CCNCC3)CC2)c(Cl)c1 [Example 252, 5-[2-chloro-4-(cyanomethoxy)-3-fluoro-phenyl]-N-[3-chloro-4-[4-(piperidine-4-carbonyl)piperazine-1-carbonyl]phenyl]-1-methyl-imidazole-2-carboxamide formate]
40 | Cn1c(-c2ccc(OC(F)F)c(F)c2F)cnc1C(=O)Nc1ccc(C(=O)N2CCN(C(=O)[C@@H]3C[C@@H](O)CN3)CC2)c(Cl)c1 [Example 163, N-[3-chloro-4-[4-[(2S,4R)-4-hydroxypyrrolidine-2-carbonyl]piperazine-1-carbonyl]phenyl]-5-[4-(difluoromethoxy)-2,3-difluoro-phenyl]-1-methyl-imidazole-2-carboxamide formate]
50 | Cn1c(-c2ccc(OCF)c(F)c2Cl)cnc1C(=O)Nc1ccc(C(=O)N2CCN(C(=O)CC3(O)CCNCC3)CC2)c(Cl)c1 [Example 173, 5-[2-chloro-3-fluoro-4-(fluoromethoxy)phenyl]-N-[3-chloro-4-[4-[2-(4-hydroxy-4-piperidyl)acetyl]piperazine-1-carbonyl]phenyl]-1-methyl-imidazole-2-carboxamide formate]
880 | CN(C)CCN1CCN(C(=O)c2ccc(NC(=O)c3ncc(-c4ccc(Oc5ccncc5)c(F)c4F)n3C)cc2Cl)CC1 [Example 272, N-[3-chloro-4-[4-[2-(dimethylamino)ethyl]piperazine-1-carbonyl]phenyl]-5-[2,3-difluoro-4-(4-pyridyloxy)phenyl]-1-methyl-imidazole-2-carboxamide trifluoroacetate]
130 | Cn1c(-c2ccc(OCC#N)c(F)c2F)cnc1C(=O)Nc1ccc(C(=O)N2CCNCC2)c(Cl)c1 [Example 14, N-[3-chloro-4-(piperazine-1-carbonyl)phenyl]-5-[4-(cyanomethoxy)-2,3-difluoro-phenyl]-1-methyl-imidazole-2-carboxamide]
60 | COc1ccc(-c2cnc(C(=O)Nc3ccc(C(=O)N4CCN(C(=O)C5(O)CCNC5)CC4)c(Cl)c3)n2C)c(F)c1F (stereo not drawn) [Example 141, N-[3-chloro-4-[4-(3-hydroxypyrrolidine-3-carbonyl)piperazine-1-carbonyl]phenyl]-5-(2,3-difluoro-4-methoxy-phenyl)-1-methyl-imidazole-2-carboxamide formate]
50 | Cn1c(-c2ccc(OCF)c(F)c2F)cnc1C(=O)Nc1ccc(C(=O)N2CCC(C(=O)NC3CCNCC3)CC2)c(Cl)c1 [Example 89, 1-(2-chloro-4-(5-(2,3-difluoro-4-(fluoromethoxy)phenyl)-1-methyl-1H-imidazole-2-carboxamido)benzoyl)-N-(piperidin-4-yl)piperidine-4-carboxamide 2,2,2-trifluoroacetate]
50 | Cn1c(-c2ccc(OC(F)F)c(F)c2F)cnc1C(=O)Nc1ccc(C(=O)N2CCN(C(=O)C3CCN(C(=O)C4(O)CCNCC4)CC3)CC2)c(Cl)c1 [Example 179, N-[3-chloro-4-[4-[1-(4-hydroxypiperidine-4-carbonyl)piperidine-4-carbonyl]piperazine-1-carbonyl]phenyl]-5-[4-(difluoromethoxy)-2,3-difluoro-phenyl]-1-methyl-imidazole-2-carboxamide formate]
70 | Cn1c(-c2ccc(OCC#N)c(Cl)c2F)cnc1C(=O)Nc1ccc(C(=O)N2CCN(C(=O)C3CCNCC3)CC2)c(Cl)c1 [Example 268, 5-[3-chloro-4-(cyanomethoxy)-2-fluoro-phenyl]-N-[3-chloro-4-[4-(piperidine-4-carbonyl)piperazine-1-carbonyl]phenyl]-1-methyl-imidazole-2-carboxamide]
90 | COc1ccc(-c2cnc(C(=O)Nc3ccc(C(=O)N4CC(NC(=O)CN)C4)c(Cl)c3)n2C)c(F)c1F [Example 217, N-(4-(3-(2-aminoacetamido)azetidine-1-carbonyl)-3-chlorophenyl)-5-(2,3-difluoro-4-methoxyphenyl)-1-methyl-1H-imidazole-2-carboxamide formate]
30 | Cn1c(-c2ccc(OCF)c(F)c2F)cnc1C(=O)Nc1ccc(C(=O)N2CCC(C(=O)N[C@H]3CNC[C@H]3F)CC2)c(Cl)c1 [Example 51, 1-[2-chloro-4-[[5-[2,3-difluoro-4-(fluoromethoxy)phenyl]-1-methyl-imidazole-2-carbonyl]amino]benzoyl]-N-[(3S,4R)-4-fluoropyrrolidin-3-yl]piperidine-4-carboxamide trifluoroacetate]
60 | COc1ccc(-c2cnc(C(=O)Nc3ccc(C(=O)N4CCC(NC(=O)CCN)CC4)c(Cl)c3)n2C)c(F)c1F [Example 103, N-[4-[4-(3-aminopropanoylamino)piperidine-1-carbonyl]-3-chloro-phenyl]-5-(2,3-difluoro-4-methoxy-phenyl)-1-methyl-imidazole-2-carboxamide formate]
120 | COc1ccc(-c2cnc(C(=O)Nc3ccc(C(=O)N4CCN(S(=O)(=O)C5CCNCC5)CC4)c(Cl)c3)n2C)c(F)c1F [Example 216, N-(3-chloro-4-(4-(piperidin-4-ylsulfonyl)piperazine-1-carbonyl)phenyl)-5-(2,3-difluoro-4-methoxyphenyl)-1-methyl-1H-imidazole-2-carboxamide formate]
170 | COc1ccc(-c2cnc(C(=O)Nc3ccc(C(=O)N4CC5(CNC5)C4)c(Cl)c3)n2C)c(F)c1F [Example 42, N-[3-chloro-4-(2,6-diazaspiro[3.3]heptane-2-carbonyl)phenyl]-5-(2,3-difluoro-4-methoxy-phenyl)-1-methyl-imidazole-2-carboxamide trifluoroacetate]
70 | COc1ccc(-c2cnc(C(=O)Nc3ccc(C(=O)N4CCN(C(=O)C[C@@H]5CCCN5)CC4)c(Cl)c3)n2C)c(F)c1F [Example 154, N-[3-chloro-4-[4-[2-[(2S)-pyrrolidin-2-yl]acetyl]piperazine-1-carbonyl]phenyl]-5-(2,3-difluoro-4-methoxy-phenyl)-1-methyl-imidazole-2-carboxamide formate]

Same assay, conditions: Acinetobacter baumannii, ATCC17961, read-out: ATCC 17961 IC90

Compound | IC90 [nM]
Cn1c(-c2ccc(OCC#N)c(F)c2F)cnc1C(=O)Nc1ccc(C(=O)N2CCN(C(=O)NCCN)CC2)c(Cl)c1 [Example 281, N-(2-Aminoethyl)-4-(2-chloro-4-(5-(4-(cyanomethoxy)-2,3-difluorophenyl)-1-methyl-1H-imidazole-2-carboxamido)benzoyl)piperazine-1-carboxamide 2,2,2-trifluoroacetate] | 60
Cn1c(-c2ccc(OCC#N)c(F)c2F)cnc1C(=O)Nc1ccc(C(=O)N2CCC(C(=O)NCC(O)CN)CC2)c(Cl)c1 (stereo not drawn) [Example 84, N-(3-amino-2-hydroxypropyl)-1-(2-chloro-4-(5-(4-(cyanomethoxy)-2,3-difluorophenyl)-1-methyl-1H-imidazole-2-carboxamido)benzoyl) piperidine-4-carboxamide 2,2,2-trifluoroacetate] | 90
